Measured values taken from ChEMBL document CHEMBL4340537, “A cross-linking approach to map small molecule-RNA binding sites in cells” (Bioorg Med Chem Lett, 2019).
Calls of active or inactive are those of the source. No cut-off for these calls is given here. Numbered stars: 1 amine (or outer) side, 2 acyl side, 3 side chain; on linkers, the order of the positions; unused ones are H or OH. Square brackets hold non-standard residues; d marks the D form. Peptide text beside a SMILES is read from it. * marks the point of attachment. Biotinyl(3aR,4R,6aS) = O=C1N[C@@H]2[C@@H](CS[C@@H]2CCCCC(=O)*)N1; N(2-Aminoethyl)Gly = O=C(CN(CCN[*:3])[*:1])[*:2]; Chlorambucil = O=C(CCCc1ccc(N(CCCl)CCCl)cc1)*; Gly(N-propargyl) = C#CCNCC(=O)O; NPrGly = CCCNCC(=O)O

How the values were obtained:
MDA-MB-231 [1] = assay: Binding affinity to pri-miR-96 RNA in human MDA-MB-231 cells assessed as reduction in matured miR-96 levels at 50 nM for 24 hrs by RT-qPCR method; assay type: cell-based
MDA-MB-231 [2] = assay: Induction of apoptosis in human MDA-MB-231 cells assessed as increase in caspase 3/7 activity up to 500 nM incubated for 48 hrs by caspase glo 3/7 assay; assay type: functional, cell-based
MDA-MB-231 [3] = assay: Binding affinity to pri-miR-96 RNA in human MDA-MB-231 cells assessed as increase in FOXO1 protein expression at 50 nM for 24 hrs by RT-qPCR method; assay type: cell-based
[4] = Binding affinity to 32P-labeled pri-miR-96 RNA (unknown origin) incubated for 4 hrs by streptavidin based liquid scintillation counting dependent pull down assay
MDA-MB-231 [5] = assay: Binding affinity to pri-miR-96 RNA in human MDA-MB-231 cells assessed as increase in RNA abundance at 50 nM for 24 hrs by RT-qPCR relative to control; assay type: cell-based
MCF-10A = assay: Induction of apoptosis in human MCF10A cells assessed as increase in caspase 3/7 activity up to 500 nM incubated for 48 hrs by caspase glo 3/7 assay; assay type: cell-based
microRNA 96 [6] = assay: Inhibition of miR-96 RNA in human MDA-MB-231 cells by TargetScan assay; assay type: cell-based
microRNA 96 [7] = assay: Inhibition of miR-96 RNA in human MDA-MB-231 cells by volcano plot analysis; assay type: cell-based
[8] = Binding affinity to pri-miR-96 RNA (unknown origin) at 1000 nM in presence of Targaprimir-96 by in vitro competitive (C-)Chem CLIP assay

| SMILES | Activity (MDA-MB-231 [1]) | Activity (MDA-MB-231 [2]) | Activity (MDA-MB-231 [3]) | Activity [4] | fold change (FC) (MDA-MB-231 [5]) | Activity (MCF-10A) | inhibition (microRNA 96 [6]) | inhibition (microRNA 96 [7]) | Activity [8] |
| --- | --- | --- | --- | --- | --- | --- | --- | --- | --- |
| C#CCN(CC(=O)N(CCNC(=O)CCCC[C@H]1SC[C@H]2NC(=O)N[C@H]21)CC(N)=O)C(=O)CN(CCC)C(=O)CN(CCNC(=O)CCCc1ccc(N(CCCl)CCCl)cc1)C(C)=O (Ac-[N(2-Aminoethyl)Gly](Chlorambucil)[NPrGly][Gly(N-propargyl)][N(2-Aminoethyl)Gly](Biotinyl(3aR,4R,6aS))-NH2) | inactive | inactive | inactive | inactive |  |  |  |  |  |
| CCCN(CC(=O)N(CCC)CC(=O)N(CC(N)=O)Cc1cn(CCCNC(=O)CCCOc2c(C(C)(C)C)cc(-c3nc4cc(N5CCN(C)CC5)ccc4[nH]3)cc2C(C)(C)C)nn1)C(=O)CCCOc1cccc(-c2nc3ccc(-c4nc5ccc(N6CCN(C)CC6)cc5[nH]4)cc3[nH]2)c1 | Active | Active | Active |  | 1.5 | Non-Toxic |  |  |  |
| CCCN(CC(=O)N(CC(=O)N(CCNC(=O)CCCC[C@H]1SC[C@H]2NC(=O)N[C@H]21)CC(N)=O)Cc1cn(CCCNC(=O)CCCOc2c(C(C)(C)C)cc(-c3nc4cc(N5CCN(C)CC5)ccc4[nH]3)cc2C(C)(C)C)nn1)C(=O)CN(CCNC(=O)CCCc1ccc(N(CCCl)CCCl)cc1)C(=O)CCCOc1cccc(-c2nc3ccc(-c4nc5cc(N6CCN(C)CC6)ccc5[nH]4)cc3[nH]2)c1 |  |  |  |  |  | Non-Toxic |  |  |  |
| CCCN(CC(=O)N(CC(=O)N(CCNC(=O)CCCC[C@H]1SC[C@H]2NC(=O)N[C@H]21)CC(N)=O)Cc1cn(CCCNC(=O)CCCOc2c(C(C)(C)C)cc(-c3nc4cc(N5CCN(C)CC5)ccc4[nH]3)cc2C(C)(C)C)nn1)C(=O)CN(CCNC(=O)CCCc1ccc(N(CCCl)CCCl)cc1)C(=O)CCCOc1cccc(-c2nc3ccc(-c4nc5ccc(N6CCN(C)CC6)cc5[nH]4)cc3[nH]2)c1 | Active | Active | Active | Active | 1.5 |  | Active | Active | inactive |
